Some results are limits rather than exact numbers.

For assay [1], the target named is Rho-associated protein kinase 2 (Homo sapiens, UniProt O75116). The experiment in a line: (§1) Protein constructs were purified from a baculovirus expression system. The peptide substrate was fluorescent LANCE® Ultra ULight-CREBtide: […] (PerkinElmer, # TRF0107-D). Kinase reactions were carried out in a 10 μL volume in 384-well plates: 50 nM ULight-CREBtide substrate, 2 nM constitutively active ROCK1 or ROCK2 kinase, and test compound in DMSO (or DMSO only for controls) were diluted into assay buffer containing 50 mM Tris-HCl (pH=7.5), 10 mM MgCl2, 1 mM EGTA, 0.01% Tween-20, and 2 mM DTT such that the final concentration of DMSO was 0.5%. After a 90 minute incubation at room temperature on a shaker table, the kinase reaction was stopped by addition of 10 mM EDTA, and phosphorylation of the substrate was detected by adding 1 nM LANCE® Ultra Europium-anti-phospho-CREB (ser133) antibody (PerkinElmer, # TRF0200-D) and incubating for 60 minutes on a shaker at room temperature. The flurorescence resonance energy transfer (FRET) signals were read and analyzed on an Envision¿ 2103 Multilabel Reader (Perkin Elmer).
Rho-associated protein kinase 2, sequence (O75116 whole entry): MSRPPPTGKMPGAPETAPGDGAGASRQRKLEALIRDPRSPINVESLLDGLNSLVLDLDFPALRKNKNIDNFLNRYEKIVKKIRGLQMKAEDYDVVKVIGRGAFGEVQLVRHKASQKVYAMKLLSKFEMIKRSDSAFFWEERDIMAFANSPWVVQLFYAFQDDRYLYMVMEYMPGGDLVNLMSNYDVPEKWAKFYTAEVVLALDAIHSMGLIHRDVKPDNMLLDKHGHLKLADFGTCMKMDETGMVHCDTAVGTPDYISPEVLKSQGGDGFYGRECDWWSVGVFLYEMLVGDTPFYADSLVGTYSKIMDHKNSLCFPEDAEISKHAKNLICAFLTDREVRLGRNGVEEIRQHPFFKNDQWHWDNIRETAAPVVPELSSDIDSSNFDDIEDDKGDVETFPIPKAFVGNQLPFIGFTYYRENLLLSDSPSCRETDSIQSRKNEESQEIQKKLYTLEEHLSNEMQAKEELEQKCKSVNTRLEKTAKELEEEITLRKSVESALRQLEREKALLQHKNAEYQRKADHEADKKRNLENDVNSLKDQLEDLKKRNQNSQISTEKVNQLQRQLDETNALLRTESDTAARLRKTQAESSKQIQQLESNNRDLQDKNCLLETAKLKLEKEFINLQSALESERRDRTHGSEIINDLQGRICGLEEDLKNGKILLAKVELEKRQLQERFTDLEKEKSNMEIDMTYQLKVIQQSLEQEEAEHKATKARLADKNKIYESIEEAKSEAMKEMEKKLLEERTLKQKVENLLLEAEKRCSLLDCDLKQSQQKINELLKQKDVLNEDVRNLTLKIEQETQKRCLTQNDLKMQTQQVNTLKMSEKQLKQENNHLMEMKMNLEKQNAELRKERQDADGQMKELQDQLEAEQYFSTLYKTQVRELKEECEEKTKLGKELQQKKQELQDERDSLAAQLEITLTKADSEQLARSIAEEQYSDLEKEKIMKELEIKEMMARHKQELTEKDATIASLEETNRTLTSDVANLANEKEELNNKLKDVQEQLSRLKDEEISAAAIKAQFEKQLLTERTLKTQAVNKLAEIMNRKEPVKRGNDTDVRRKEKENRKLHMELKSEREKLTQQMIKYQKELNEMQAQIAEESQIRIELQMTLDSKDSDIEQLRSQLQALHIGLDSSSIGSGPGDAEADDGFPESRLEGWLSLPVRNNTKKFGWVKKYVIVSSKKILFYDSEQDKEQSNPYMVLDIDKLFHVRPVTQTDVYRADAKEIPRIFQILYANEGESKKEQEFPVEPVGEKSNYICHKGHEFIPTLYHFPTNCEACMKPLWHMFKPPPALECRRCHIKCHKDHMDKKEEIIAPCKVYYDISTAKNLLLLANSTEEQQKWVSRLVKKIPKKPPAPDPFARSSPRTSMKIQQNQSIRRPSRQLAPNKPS

The target in assay [2] is Rho-associated protein kinase 1 (Homo sapiens, UniProt Q13464). The description is as §1.
Rho-associated protein kinase 1, sequence (Q13464 whole entry): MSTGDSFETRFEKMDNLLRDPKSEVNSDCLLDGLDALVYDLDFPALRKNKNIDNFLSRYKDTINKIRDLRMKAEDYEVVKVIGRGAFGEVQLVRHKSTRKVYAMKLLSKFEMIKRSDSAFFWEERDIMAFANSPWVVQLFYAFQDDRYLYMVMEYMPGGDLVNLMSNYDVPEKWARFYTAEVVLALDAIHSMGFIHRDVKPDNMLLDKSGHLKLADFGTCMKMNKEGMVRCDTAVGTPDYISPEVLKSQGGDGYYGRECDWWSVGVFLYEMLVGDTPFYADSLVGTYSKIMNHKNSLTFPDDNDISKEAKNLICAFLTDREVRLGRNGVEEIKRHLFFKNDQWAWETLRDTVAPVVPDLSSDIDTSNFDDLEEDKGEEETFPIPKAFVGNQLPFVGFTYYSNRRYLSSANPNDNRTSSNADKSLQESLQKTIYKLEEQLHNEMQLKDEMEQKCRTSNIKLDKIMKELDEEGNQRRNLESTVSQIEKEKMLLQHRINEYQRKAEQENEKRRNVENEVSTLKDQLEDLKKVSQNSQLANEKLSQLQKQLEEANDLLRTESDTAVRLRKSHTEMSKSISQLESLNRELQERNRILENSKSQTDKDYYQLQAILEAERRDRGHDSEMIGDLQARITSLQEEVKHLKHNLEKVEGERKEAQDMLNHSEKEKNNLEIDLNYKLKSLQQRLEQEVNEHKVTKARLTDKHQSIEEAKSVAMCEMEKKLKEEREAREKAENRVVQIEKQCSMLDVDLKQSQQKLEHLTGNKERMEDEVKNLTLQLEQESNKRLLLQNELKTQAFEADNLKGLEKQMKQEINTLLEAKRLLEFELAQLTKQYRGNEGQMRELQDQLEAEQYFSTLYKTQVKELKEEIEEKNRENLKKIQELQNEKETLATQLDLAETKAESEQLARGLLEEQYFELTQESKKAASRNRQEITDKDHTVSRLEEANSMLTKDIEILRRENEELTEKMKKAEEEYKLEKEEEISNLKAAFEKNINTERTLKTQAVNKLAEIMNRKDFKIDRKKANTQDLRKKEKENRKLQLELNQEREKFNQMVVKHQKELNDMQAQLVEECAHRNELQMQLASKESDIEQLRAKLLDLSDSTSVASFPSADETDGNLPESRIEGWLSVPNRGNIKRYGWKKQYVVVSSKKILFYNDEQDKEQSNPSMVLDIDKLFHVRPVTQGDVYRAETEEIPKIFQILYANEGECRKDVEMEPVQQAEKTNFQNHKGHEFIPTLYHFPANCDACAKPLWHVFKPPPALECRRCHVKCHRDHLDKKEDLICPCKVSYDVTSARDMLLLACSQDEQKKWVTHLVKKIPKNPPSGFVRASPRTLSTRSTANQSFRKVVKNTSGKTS

In the case of `CC1(C(=O)Nc2cccc(-c3nnc(Nc4ccc5[nH]ncc5c4Cl)s3)c2)CCCCC1`, the IC50 in assay [1] was under 1000 nM.

For the compound `O=C(CC(F)(F)F)Nc1cccc(-c2nnc(Nc3ccc4[nH]ncc4c3Cl)s2)c1`, the IC50 in assay [2] and in assay [1] was under 1000 nM each time.

As to `CC(C)(O)C(=O)Nc1cccc(-c2nnc(Nc3ccc4[nH]ncc4c3Cl)s2)c1`, the IC50 in assay [2] and in assay [1] was under 1000 nM throughout.

For `O=C(Nc1cccc(-c2nnc(Nc3ccc4[nH]ncc4c3Cl)s2)c1)C1CCCCC1`, the IC50 in assay [2] and in assay [1] was under 1000 nM each time.

As for `CC(=O)Nc1cccc(-c2nnc(Nc3ccc4[nH]ncc4c3Br)s2)c1`, the IC50 in assay [2] and in assay [1] was under 1000 nM throughout.

As to `Clc1c(Nc2nnc(-c3cccc(-c4nccn4CCN4CCCC4)c3)s2)ccc2[nH]ncc12`, the figures for the IC50 in assay [2] and in assay [1] were over 30000 nM and under 1000 nM, respectively.

`CN(C)CCn1cnc2c(-c3nnc(Nc4ccc5[nH]ncc5c4Cl)s3)cccc21`: the IC50 in assay [2] and in assay [1] was under 1000 nM throughout.

`COCCOC(=O)Nc1cc(-c2nnc(Nc3ccc4[nH]ncc4c3Cl)s2)ccn1`: the IC50 in assay [2] was over 30000 nM; in assay [1], under 1000 nM.

In assay [2], `CCOC(=O)N(c1nnc(-c2cccc(NC(=O)Cc3ccc(F)cc3)c2)s1)c1ccc2[nH]ncc2c1Cl` registered an IC50 of over 30000 nM.

Turning to `Clc1c(Nc2nnc(-c3cccc4c3ncn4CCN3CCCC3)s2)ccc2[nH]ncc12`, in assay [2], the half-maximal inhibitory concentration (IC50) was over 30000 nM.

Consider `CC(=O)Nc1cc(C(=O)N2CCNCC2)cc(-c2nnc(Nc3ccc4[nH]ncc4c3Cl)s2)c1`, for which the IC50 in assay [2] and in assay [1] was under 1000 nM throughout.

Regarding `CC(=O)Nc1cc(C(N)=O)cc(-c2nnc(Nc3ccc4[nH]ncc4c3Cl)s2)c1`, the IC50 in assay [2] and in assay [1] was under 1000 nM throughout.

`Clc1c(Nc2nnc(-c3cccc(-c4nccn4CCN4CCOCC4)c3)s2)ccc2[nH]ncc12`: the 50% inhibitory concentration (IC50) in assay [2] and in assay [1] was under 1000 nM each time.

With `CC(=O)Nc1cc(C)cc(-c2nnc(Nc3ccc4[nH]ncc4c3)s2)c1`, the IC50 in assay [2] is over 30000 nM; in assay [1] it was under 1000 nM.

Turning to `CN1CC(C(=O)Nc2cccc(-c3nnc(Nc4ccc5[nH]ncc5c4Cl)s3)c2)C1`, in assay [1], the IC50 was under 1000 nM.

Take `CNC(=O)c1cc(NC(C)=O)cc(-c2nnc(Nc3ccc4[nH]ncc4c3Cl)s2)c1`: the IC50 in assay [2] and in assay [1] was under 1000 nM in each case.

Take `CN1CCC(C(=O)Nc2cccc(-c3nnc(Nc4ccc5[nH]ncc5c4Cl)s3)c2)CC1`: the IC50 in assay [2] and in assay [1] was under 1000 nM in each case.

Turning to `Cc1cn2cccc(-c3nnc(Nc4ccc5[nH]ncc5c4Cl)s3)c2n1`, the IC50 in assay [2] and in assay [1] was under 1000 nM each time.

`CC(=O)Nc1ccc(Cl)c(-c2nnc(Nc3ccc4[nH]ncc4c3Cl)s2)c1`: the IC50 is over 30000 nM in assay [2] and under 1000 nM in assay [1].

As to `N#Cc1ccc(-c2cn3cccc(-c4nnc(Nc5ccc6[nH]ncc6c5Cl)s4)c3n2)cc1`, the IC50 is over 30000 nM in assay [2] and under 1000 nM in assay [1].

Consider `CC(=O)Nc1cccc(-c2nnc(Nc3ccc4[nH]ncc4c3)s2)c1`, for which the IC50 in assay [2] and in assay [1] was under 1000 nM each time.

Take `CCCCOC(=O)N(c1nnc(-c2cccc(NC(=O)Cc3ccc(F)cc3)c2)s1)c1ccc2[nH]ncc2c1Cl`: the IC50 in assay [2] was over 30000 nM; in assay [1], under 1000 nM.

Regarding `CC(=O)Nc1cc(C(=O)NCCN(C)C)cc(-c2nnc(Nc3ccc4[nH]ncc4c3Cl)s2)c1`, the half-inhibitory concentration (IC50) in assay [2] and in assay [1] was under 1000 nM each time.

Consider `CC(=O)Nc1cc(C(=O)N2CCOCC2)cc(-c2nnc(Nc3ccc4[nH]ncc4c3Cl)s2)c1`, for which the half-maximal inhibitory concentration (IC50) in assay [2] and in assay [1] was under 1000 nM throughout.

With `CC(=O)Nc1cc(C(N)=O)cc(-c2nnc(Nc3ccc4[nH]ncc4c3)s2)c1`, the IC50 in assay [2] and in assay [1] was under 1000 nM in each case.

For `O=S(=O)(CCO)Nc1cccc(-c2nnc(Nc3ccc4[nH]ncc4c3)s2)c1`, the IC50 in assay [2] is over 30000 nM; in assay [1], under 1000 nM.

`O=C(Nc1cccc(-c2nnc(Nc3ccc4[nH]ncc4c3Cl)s2)c1)C(F)(F)F`: the half-inhibitory concentration (IC50) in assay [2] is over 30000 nM; in assay [1], under 1000 nM.

For `O=C(Nc1cccc(-c2nnc(Nc3ccc4[nH]ncc4c3Cl)s2)c1)C1CCNCC1`, the IC50 in assay [1] is under 1000 nM.

With `NCc1ccc(C(=O)Nc2cccc(-c3nnc(Nc4ccc5[nH]ncc5c4)s3)c2)cn1`, the IC50 in assay [2] and in assay [1] was under 1000 nM in each case.

As usually defined, the IC50 is the concentration needed to halve the response being measured.
